Patent publication US10464947B2 (Incyte Corporation, priority 2013, dated 2019)

Tests used:
BRD4-BD1 = BRD4-BD1 (Homo sapiens (Human), UniProt O60885); assay: BRD4 AlphaScreen Assay (Example A2), BRD4-BD1; format: binding; conditions: read-out: BRD4 BD-1 enzyme IC50
Method: (§1) BRD4-BD1 and BRD4-BD2 assays were conducted in white 384-well polystyrene plate in a final volume of 40 μL for BD1 and 60 μL for BD2. Inhibitors were first serially diluted in DMSO and added to the plate wells before the addition of other reaction components. […] The assays were carried out at room temperature in the assay buffer (50 mM Tris-HCl, pH 7.5, 0.01% Tween-20, 0.01% BSA, 5 mM DTT), containing 50 nM Biotin-labeled tetra-acetylated histone H4 peptide (H4Ac4) and BRD4-BD1 or BRD4-BD2 protein at concentration less than 1 nM. […] After plate sealing, the plate was incubated in the dark at room temperature for 75 min. before reading on a PHERAstar FS plate reader (BMG Labtech). IC50 determination was performed by fitting the curve of percent control activity versus the log of the inhibitor concentration using the GraphPad Prism 5.0 software.

BRD4-BD2 = BRD4-BD2 (Homo sapiens (Human), UniProt O60885); assay: BRD4 AlphaScreen Assay (Example A2), BRD4-BD2; format: binding; conditions: read-out: BRD4 BD-2 enzyme IC50
Method: as §1

KMS.12.BM cells = assay: KMS.12.BM Cell Viability Assay (Example B1); format: cell-based, human; conditions: Homo sapiens, 72 h, 3 days, Cell Titer-GLO, read-out: KMS cellular IC50
Procedure, shortened: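 KMS.12.BM human myeloma cells, 5000 cells/well in RPMI with 10% FBS, exposed to a compound concentration range for 3 days. Viable cells measured by ATP-based Cell Titer-GLO luminescence after 10 min at room temperature.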

C-myc in KMS.12.BM cells = assay: KMS.12.BM C-Myc ELISA Assay (Example C1); format: cell-based; conditions: Homo sapiens, 2 h
Method: KMS.12.BM C-Myc ELISA Assay
KMS.12.BM cell line (human myeloma) was purchased from JCRB (Osaka, Japan) and maintained in RPMI with 10% FBS culture medium. To measure the C-myc inhibitory activity of the compounds, the KMS.12.BM cells are plated in the RPMI culture medium at 75000 cells/well/per 200 μL into a 96-well flat bottom polystyrene tissue culture plate (Corning through VWR, NJ), in the presence or absence of a concentration range of test compounds. After 2 h, cells are pelleted and lysed with Cell Extraction Buffer (BioSource, Carlsbad, Calif.) in the presence of protease inhibitors (Life Technologies, Grand Island, N.Y. and Sigma, St Louis, Mo.). Clarified lyses are tested in a C-myc commercial ELISA (Life Technologies, Grand Island, N.Y.).

| IC50 (BRD4-BD1) [nM] | IC50 (BRD4-BD2) [nM] | IC50 (C-myc in KMS.12.BM cells) [nM] | SMILES | IC50 (KMS.12.BM cells) [nM] |
| --- | --- | --- | --- | --- |
| < 100 | < 100 | < 1000 | Cc1noc(C)c1-c1ccc2[nH]c(=O)n3c2c1OCC3c1cccnc1C(=O)NCC(F)(F)F (single isomer, unassigned) [Example 136, 3-[7-(3,5-dimethylisoxazol-4-yl)-2-oxo-1,2,4,5-tetrahydroimidazo[1,5,4-de][1,4]benzoxazin-4-yl]-N-(2,2,2-trifluoroethyl)pyridine-2-carboxamide] | < 1000 |
| < 100 | < 100 | < 1000 | Cc1noc(C)c1-c1ccc2[nH]c(=O)n3c2c1OCC3c1cccnc1C(=O)NCCO (single isomer, unassigned) [Example 135, 3-[7-(3,5-Dimethylisoxazol-4-yl)-2-oxo-1,2,4,5-tetrahydroimidazo[1,5,4-de][1,4]benzoxazin-4-yl]-N-(2-hydroxyethyl)pyridine-2-carboxamide] | < 1000 |
